Values of other authors as cited in patent US20120141434A1, “Methods for Selecting Expanded Stem Cell Populations” (Gamida Cell Ltd., priority 2009, published 2012).

Assays:
NOD/SCID mice = settings: TEPA treated cultures compared to untreated cultures
[1] = system: cord blood-derived progenitor cells; settings: three-week treatment of cord blood cultures supplemented with early acting cytokines

For `NCCNCCNCCNCCN` [TEPA, tetraethylenepentamine], the “engraftment potential in NOD/SCID mice” value (NOD/SCID mice) is given as “increased”, the “ex vivo expansion of CD34+ cells” value [1] is given as “prolonged and extensive” and the “percentages of early progenitors (CD34+CD38−, CD34+CD38−Lin-)” value [1] is given as “higher”.
